Results from patent US12496289B2, “Methods of increasing magnesium bioavailability and absorption” (Balchem Corporation, priority 2020, dated 2025).

Columns and labels:
[1] = test system: Caco-2 cells; test: Caco-2 in vitro magnesium transport assay; settings: for Magnesium transport with increasing treatment concentration: 0, 5, 10, 15, 20, and 25 mg Mg (ascorbate or chloride)
Protocol: Caco-2 cells were used to model in vitro magnesium absorption of intestinal cells. […] Six different solutions, with magnesium and varying ratios of ascorbate were tested. Each solution comprised 20 mM of magnesium. Cells were exposed to one of the six solutions for 4 hours, then the basal media was analyzed for magnesium, using a colorimetric test.
Various magnesium solutions were tested to determine their impact on magnesium transport: magnesium ascorbate, magnesium bisglycinate, magnesium orotate, magnesium threonate, and magnesium malate (trihydrate and hexahydrate; abbreviated MgM3H20 or MgM6H20 respectively in FIG. 2). […] (see FIG. 2)
Six different treatment concentrations were tested: 0, 5, 10, 15, 20, and 25 mg Mg (ascorbate or chloride).

[2] = test system: Caco-2 cells; test: Caco-2 cell viability with ascorbic acid (fluorescent probes); format: cell-based; settings: 0, 5, 25, or 50 mM ascorbic acid for 240 min; cells propagated 14 days
Protocol: FIG. 5 depicts a graph illustrating the viability over time of cells incubated with various solutions. Caco-2 cells were propagated in T-75 tissue culture flasks for 14 days. The cells were then incubated with either 0, 5, 25, or 50 mM ascorbic acid for 240 min. Fluorescent probes were used to determine viability.
Experiments were performed to test the impact of various ascorbic acid concentrations on cell viability. Caco-2 cells were propagated in T-75 tissue culture flasks for 14 days. The cells were then incubated with either 0, 5, 25, or 50 mM ascorbic acid for 240 min. Fluorescent probes were used to determine viability.

With [Cl-].[Cl-].[Mg+2] [magnesium chloride, reference compound] the “Magnesium transport with increasing treatment concentration” value ([1]; FIG. 3) was “increased magnesium transport, in a linear fashion”.
O=C1O[C@H]([C@@H](O)CO)C(O)=C1O [ascorbic acid] was tested, and the Cell viability [2] was “no conclusive evidence that ascorbic acid kills the cells”.
magnesium ascorbate was tested, and the “Magnesium transport with increasing treatment concentration” value ([1]; FIG. 3) was “significant jump in magnesium transport between the 10 mM treatment and the 15 mM treatment”, the “Magnesium transport compared with magnesium chloride at any given concentration tested” value ([1]; 0, 5, 10, 15, 20, and 25 mg Mg, FIG. 3) was “greater magnesium transport than magnesium chloride” and the “Magnesium transport rate compared with other magnesium solutions” value ([1]; vs magnesium bisglycinate, orotate, threonate, malate (trihydrate and hexahydrate), FIG. 2) was “statistically significant higher transport rate than any other magnesium solution tested”.
